Measured values as given in patent publication US6525001B1, “Substituted pyrimidine and pyridine herbicides” (Mid-American Commercialization Corporation, priority 1997, dated 2003).

Tests used:
Type in all cases: in vivo
[1] = test system: johnsongrass (Sorghum halepense); test: Test C; design: key: 0 was no effect; 100 was complete control; conditions: PREEMERGENCE
[2] = test system: cocklebur (Xanthium strumarium); test: Test C; design: key: 0 was no effect; 100 was complete control; conditions: PREEMERGENCE
[3] = test system: bermudagrass (Cynodon dactylon); test: Test E pre-/postemergence/post directed
From the text: (§1) Seeds, tubers, or plant parts of alexandergrass (Brachiaria plantaginea), annual bluegrass (Poa annua), arrowleaf sida (Sida rhombifolia), barnyardgrass (Echinochloa crus-galli), bermudagrass (Cynodon dactylon), citrus (Citrus sinensis), common chickweed (Stellaria media), common purslane (Portulaca oleracea), common ragweed (Ambrosia elatior), common groundsel (Senecio vulgaris), dallisgrass (Paspalum dilatatum), goosegrass (Eleusine indica), green foxtail (Setaria viridis), guineagrass (Panicum maximum), itchgrass (Rottboellia exaltata), johnson grass (Sorghum halepense), kochia (Kochia scoparia), large crabgrass (Digitaria sanguinalis), leafy spurge (Euphorbia esula), pitted morningglory (Ipomoea lacunosa), purple nutsedge (Cyperus rotundus), quackgrass (Agropyron repens), Russian thistle (Salsola kali), sandbur (Cenchrus echinatus), sourgrass (Trichachne insularis), Spanishneedles (Bidens bipinnata), sugarcane (Saccharum officinarum), surinam grass (Brachiaria decumbens) and tall mallow (Malva sylvestris) were planted into greenhouse pots of flats containing greenhouse planting medium. Plant species were grown grown in separate pots or individual compartments. Preemergence applications were made within one day of planting the seed or plant part. Postemergence applications were applied when the plants were in the two to four leaf stage (three to twenty cm).
(§2) Test chemicals were formulated in a non-phytotoxic solvent mixture which included a surfactant and applied preemergence to the soil surface, postemergence to the plants or as a post directed spray to plants and soil at the base of the target species. Untreated control plants and treated plants were placed in the greenhouse and visually evaluated for injury 13 to 21 days after herbicide application. Plant response ratings, summarized in Table E, are based on a 0 to 100 scale where 0 is no injury and 100 is complete control. A dash (−) response means no test result.

[4] = test system: johnson grass (Sorghum halepense); test: Test E pre-/postemergence/post directed
From the text: as §1, §2

[5] = test system: surinam grass (Brachiaria decumbens); test: Test E pre-/postemergence/post directed
From the text: as §1, §2

[6] = test system: Spanishneedles (Bidens bipinnata); test: Test E pre-/postemergence/post directed
From the text: as §1, §2

[7] = test system: alexandergrass (Brachiaria plantaginea); test: Test E pre-/postemergence/post directed
From the text: as §1, §2

[8] = test system: itchgrass (Rottboellia exaltata); test: Test E pre-/postemergence/post directed
From the text: as §1, §2

[9] = test system: large crabgrass (Digitaria sanguinalis); test: Test E pre-/postemergence/post directed
From the text: as §1, §2

[10] = test system: common ragweed (Ambrosia elatior); test: Test E pre-/postemergence/post directed
From the text: as §1, §2

[11] = test system: sandbur (Cenchrus echinatus); test: Test E pre-/postemergence/post directed; conditions: PREEMERGENCE
From the text: as §1, §2

[12] = test system: pitted morningglory (Ipomoea lacunosa); test: Test E pre-/postemergence/post directed
From the text: as §1, §2

[13] = test system: common groundsel (Senecio vulgaris); test: Test E pre-/postemergence/post directed
From the text: as §1, §2

[14] = test system: field bindweed (Convolvulus arvensis); test: Test C; design: key: 0 was no effect; 100 was complete control; conditions: PREEMERGENCE
[15] = test system: redroot pigweed (Amaranthus retroflexus); test: Test C; design: key: 0 was no effect; 100 was complete control; conditions: PREEMERGENCE
[16] = test system: common purslane (Portulaca oleracea); test: Test E pre-/postemergence/post directed; design: key: 0 is no effect; 100 is complete control
In short: (§3)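 Greenhouse pots; compound in non-phytotoxic solvent with surfactant, sprayed preemergence within one day of planting, postemergence at two to four leaf stage (three to twenty cm), or post directed to plant base and soil. Visual injury rated 13 to 21 days after application, 0 (none) to 100 (complete control).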

[17] = test system: surinam grass (Brachiaria decumbens); test: Test E pre-/postemergence/post directed; design: key: 0 is no effect; 100 is complete control; conditions: PREEMERGENCE
In short: as §3

[18] = test system: large crabgrass (Digitaria sanguinalis); test: Test E pre-/postemergence/post directed; design: key: 0 is no effect; 100 is complete control; conditions: PREEMERGENCE
In short: as §3

[19] = test system: goosegrass (Eleusine indica); test: Test E pre-/postemergence/post directed; design: key: 0 is no effect; 100 is complete control
In short: as §3

[20] = test system: common ragweed (Ambrosia elatior); test: Test E pre-/postemergence/post directed; design: key: 0 is no effect; 100 is complete control; conditions: PREEMERGENCE
In short: as §3

Cc1cnc(-c2ccc(C(F)(F)F)cc2)nc1Cc1cccc(OC(F)(F)F)c1 [Compound 15]
Plant response rating, Johnsongrass ([1]; Rate 35 g/ha): 35
Plant response rating, Johnsongrass ([1]; Rate 70 g/ha): 85
Plant response rating, Johnsongrass ([1]; Rate 140 g/ha): 100
Plant response rating, Cocklebur ([2]; Rate 35 g/ha): 0
Plant response rating, Cocklebur ([2]; Rate 70 g/ha): 0
Plant response rating, Cocklebur ([2]; Rate 140 g/ha): 5
Plant response rating, Bermudagrass ([3]; POSTEMERGENCE, Rate 125 g/ha): 20
Plant response rating, Bermudagrass ([3]; POSTEMERGENCE, Rate 250 g/ha): 20
Plant response rating, Bermudagrass ([3]; PREEMERGENCE, Rate 32 g/ha): 98
Plant response rating, Bermudagrass ([3]; PREEMERGENCE, Rate 64 g/ha): 98
Plant response rating, Bermudagrass ([3]; PREEMERGENCE, Rate 125 g/ha): 98
Plant response rating, Bermudagrass ([3]; PREEMERGENCE, Rate 250 g/ha): 98
Plant response rating, Johnsongrass ([4]; POSTEMERGENCE, Rate 125 g/ha): 98
Plant response rating, Johnsongrass ([4]; PREEMERGENCE, Rate 32 g/ha): 60
Plant response rating, Johnsongrass ([4]; PREEMERGENCE, Rate 64 g/ha): 90
Plant response rating, Johnsongrass ([4]; PREEMERGENCE, Rate 125 g/ha): 90
Plant response rating, Surinam grass ([5]; POSTEMERGENCE, Rate 125 g/ha): 35
Plant response rating, Surinam grass ([5]; POSTEMERGENCE, Rate 250 g/ha): 40
Plant response rating, Surinam grass ([5]; PREEMERGENCE, Rate 32 g/ha): 20
Plant response rating, Surinam grass ([5]; PREEMERGENCE, Rate 64 g/ha): 20
Plant response rating, Spanishneedles ([6]; POSTEMERGENCE, Rate 125 g/ha): 5
Plant response rating, Spanishneedles ([6]; POSTEMERGENCE, Rate 250 g/ha): 10
Plant response rating, Spanishneedles ([6]; PREEMERGENCE, Rate 32 g/ha): 50
Plant response rating, Spanishneedles ([6]; PREEMERGENCE, Rate 64 g/ha): 30
Plant response rating, Spanishneedles ([6]; PREEMERGENCE, Rate 125 g/ha): 98
Plant response rating, Alexandergrass ([7]; POSTEMERGENCE, Rate 125 g/ha): 10
Plant response rating, Alexandergrass ([7]; POSTEMERGENCE, Rate 250 g/ha): 20
Plant response rating, Alexandergrass ([7]; PREEMERGENCE, Rate 32 g/ha): 75
Plant response rating, Alexandergrass ([7]; PREEMERGENCE, Rate 64 g/ha): 80
Plant response rating, Itchgrass ([8]; POSTEMERGENCE, Rate 125 g/ha): 80
Plant response rating, Itchgrass ([8]; POSTEMERGENCE, Rate 250 g/ha): 85
Plant response rating, Itchgrass ([8]; PREEMERGENCE, Rate 32 g/ha): 10
Plant response rating, Itchgrass ([8]; PREEMERGENCE, Rate 64 g/ha): 30
Plant response rating, Itchgrass ([8]; PREEMERGENCE, Rate 125 g/ha): 60
Plant response rating, Itchgrass ([8]; PREEMERGENCE, Rate 250 g/ha): 80
Plant response rating, Large crabgrass ([9]; POSTEMERGENCE, Rate 125 g/ha): 10
Plant response rating, Large crabgrass ([9]; POSTEMERGENCE, Rate 250 g/ha): 40
Plant response rating, Large crabgrass ([9]; PREEMERGENCE, Rate 32 g/ha): 98
Plant response rating, Com. ragweed ([10]; POSTEMERGENCE, Rate 125 g/ha): 5
Plant response rating, Com. ragweed ([10]; POSTEMERGENCE, Rate 250 g/ha): 10
Plant response rating, Com. ragweed ([10]; PREEMERGENCE, Rate 125 g/ha): 98
Plant response rating, Sandbur ([11]; Rate 32 g/ha): 10
Plant response rating, Sandbur ([11]; Rate 64 g/ha): 20
Plant response rating, Sandbur ([11]; Rate 125 g/ha): 50
Plant response rating, P. morninglory ([12]; POSTEMERGENCE, Rate 125 g/ha): 5
Plant response rating, P. morninglory ([12]; POSTEMERGENCE, Rate 250 g/ha): 5
Plant response rating, P. morninglory ([12]; PREEMERGENCE, Rate 32 g/ha): 5
Plant response rating, P. morninglory ([12]; PREEMERGENCE, Rate 64 g/ha): 40
Plant response rating, P. morninglory ([12]; PREEMERGENCE, Rate 125 g/ha): 75
Plant response rating, P. morninglory ([12]; PREEMERGENCE, Rate 250 g/ha): 90
Plant response rating, Com. groundsel ([13]; POSTEMERGENCE, Rate 250 g/ha): 20
Plant response rating, Com. groundsel ([13]; PREEMERGENCE, Rate 64 g/ha): 98
Plant response rating, Field bindweed ([14]; Rate 35 g/ha): 65
Plant response rating, Field bindweed ([14]; Rate 70 g/ha): 100
Plant response rating, Field bindweed ([14]; Rate 140 g/ha): 100
Plant response rating, Redroot pigweed ([15]; Rate 35 g/ha): 60
Plant response rating, Redroot pigweed ([15]; Rate 70 g/ha): 85
Plant response rating, Redroot pigweed ([15]; Rate 140 g/ha): 100
Plant response rating, Com. purslane ([16]; POSTEMERGENCE, Rate 125 g/ha): 75
Plant response rating, Com. purslane ([16]; POSTEMERGENCE, Rate 250 g/ha): 80
Plant response rating, Com. purslane ([16]; PREEMERGENCE, Rate 32 g/ha): 100
Plant response rating, Com. purslane ([16]; PREEMERGENCE, Rate 64 g/ha): 100
Plant response rating, Com. purslane ([16]; PREEMERGENCE, Rate 125 g/ha): 100
Plant response rating, Com. purslane ([16]; PREEMERGENCE, Rate 250 g/ha): 100
Plant response rating, Surinam grass ([17]; Rate 125 g/ha): 100
Plant response rating, Surinam grass ([17]; Rate 250 g/ha): 100
Plant response rating, Large crabgrass ([18]; Rate 64 g/ha): 100
Plant response rating, Large crabgrass ([18]; Rate 125 g/ha): 100
Plant response rating, Large crabgrass ([18]; Rate 250 g/ha): 100
Plant response rating, Goosegrass ([19]; POSTEMERGENCE, Rate 125 g/ha): 20
Plant response rating, Goosegrass ([19]; POSTEMERGENCE, Rate 250 g/ha): 30
Plant response rating, Goosegrass ([19]; PREEMERGENCE, Rate 32 g/ha): 98
Plant response rating, Goosegrass ([19]; PREEMERGENCE, Rate 64 g/ha): 98
Plant response rating, Goosegrass ([19]; PREEMERGENCE, Rate 125 g/ha): 98
Plant response rating, Goosegrass ([19]; PREEMERGENCE, Rate 250 g/ha): 100
Plant response rating, Com. ragweed ([20]; Rate 32 g/ha): 100
Plant response rating, Com. ragweed ([20]; Rate 64 g/ha): 100
Plant response rating, Com. ragweed ([20]; Rate 250 g/ha): 100
